Values of other authors in article PMC9851200, “Multiparameter phenotypic screening for endogenous TFEB and TFE3 translocation identifies novel chemical series modulating lysosome function” (Autophagy, 2022).

Assays:
Set-up in all cases: method as in original PKIS2 published data
[1] = target: T1, kinases (KINOMEscan panel) (Homo sapiens, UniProt Q8WXR4); conditions: MYO3B; Published KINOMEscan; ref original PKIS2 published data; cited from earlier work
T1 sequence (Q8WXR4 1-1341): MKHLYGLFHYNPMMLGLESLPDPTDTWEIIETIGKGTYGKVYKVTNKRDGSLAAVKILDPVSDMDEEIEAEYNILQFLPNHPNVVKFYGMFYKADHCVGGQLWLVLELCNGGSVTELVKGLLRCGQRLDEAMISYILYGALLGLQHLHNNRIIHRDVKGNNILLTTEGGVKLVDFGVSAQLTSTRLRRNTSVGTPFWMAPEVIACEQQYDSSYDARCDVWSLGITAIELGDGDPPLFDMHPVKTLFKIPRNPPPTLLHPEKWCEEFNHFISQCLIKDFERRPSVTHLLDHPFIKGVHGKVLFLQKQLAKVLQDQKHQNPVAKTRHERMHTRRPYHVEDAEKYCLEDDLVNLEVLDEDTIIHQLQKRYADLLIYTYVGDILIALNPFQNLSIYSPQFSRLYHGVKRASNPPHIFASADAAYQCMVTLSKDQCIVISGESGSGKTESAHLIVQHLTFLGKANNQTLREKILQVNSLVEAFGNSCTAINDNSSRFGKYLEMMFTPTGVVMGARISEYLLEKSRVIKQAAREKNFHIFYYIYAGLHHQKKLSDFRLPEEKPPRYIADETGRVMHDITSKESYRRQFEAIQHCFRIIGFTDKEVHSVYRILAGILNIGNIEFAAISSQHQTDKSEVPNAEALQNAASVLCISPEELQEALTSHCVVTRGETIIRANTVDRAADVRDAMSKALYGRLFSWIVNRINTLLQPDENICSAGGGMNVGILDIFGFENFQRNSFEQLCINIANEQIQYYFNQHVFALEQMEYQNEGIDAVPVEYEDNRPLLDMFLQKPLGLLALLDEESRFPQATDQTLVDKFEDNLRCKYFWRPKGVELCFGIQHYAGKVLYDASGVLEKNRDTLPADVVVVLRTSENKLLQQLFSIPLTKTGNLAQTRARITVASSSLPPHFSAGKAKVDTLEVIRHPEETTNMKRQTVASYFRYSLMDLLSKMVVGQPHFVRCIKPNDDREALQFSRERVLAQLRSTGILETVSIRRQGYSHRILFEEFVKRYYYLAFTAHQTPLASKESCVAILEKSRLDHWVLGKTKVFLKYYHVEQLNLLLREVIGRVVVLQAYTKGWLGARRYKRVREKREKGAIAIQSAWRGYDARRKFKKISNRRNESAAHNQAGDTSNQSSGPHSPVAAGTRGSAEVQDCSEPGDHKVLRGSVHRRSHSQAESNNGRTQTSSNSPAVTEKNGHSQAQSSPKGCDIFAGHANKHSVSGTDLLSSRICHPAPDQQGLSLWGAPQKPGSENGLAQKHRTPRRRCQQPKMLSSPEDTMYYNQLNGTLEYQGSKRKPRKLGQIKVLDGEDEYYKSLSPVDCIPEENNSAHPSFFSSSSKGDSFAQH

[2] = target: kinases (KINOMEscan panel) (Homo sapiens, UniProt P29317); conditions: EPHA2; Published KINOMEscan; ref original PKIS2 published data; cited from earlier work
Sequence of kinases (KINOMEscan panel) (Homo sapiens, UniProt P29317) (P29317 24-976): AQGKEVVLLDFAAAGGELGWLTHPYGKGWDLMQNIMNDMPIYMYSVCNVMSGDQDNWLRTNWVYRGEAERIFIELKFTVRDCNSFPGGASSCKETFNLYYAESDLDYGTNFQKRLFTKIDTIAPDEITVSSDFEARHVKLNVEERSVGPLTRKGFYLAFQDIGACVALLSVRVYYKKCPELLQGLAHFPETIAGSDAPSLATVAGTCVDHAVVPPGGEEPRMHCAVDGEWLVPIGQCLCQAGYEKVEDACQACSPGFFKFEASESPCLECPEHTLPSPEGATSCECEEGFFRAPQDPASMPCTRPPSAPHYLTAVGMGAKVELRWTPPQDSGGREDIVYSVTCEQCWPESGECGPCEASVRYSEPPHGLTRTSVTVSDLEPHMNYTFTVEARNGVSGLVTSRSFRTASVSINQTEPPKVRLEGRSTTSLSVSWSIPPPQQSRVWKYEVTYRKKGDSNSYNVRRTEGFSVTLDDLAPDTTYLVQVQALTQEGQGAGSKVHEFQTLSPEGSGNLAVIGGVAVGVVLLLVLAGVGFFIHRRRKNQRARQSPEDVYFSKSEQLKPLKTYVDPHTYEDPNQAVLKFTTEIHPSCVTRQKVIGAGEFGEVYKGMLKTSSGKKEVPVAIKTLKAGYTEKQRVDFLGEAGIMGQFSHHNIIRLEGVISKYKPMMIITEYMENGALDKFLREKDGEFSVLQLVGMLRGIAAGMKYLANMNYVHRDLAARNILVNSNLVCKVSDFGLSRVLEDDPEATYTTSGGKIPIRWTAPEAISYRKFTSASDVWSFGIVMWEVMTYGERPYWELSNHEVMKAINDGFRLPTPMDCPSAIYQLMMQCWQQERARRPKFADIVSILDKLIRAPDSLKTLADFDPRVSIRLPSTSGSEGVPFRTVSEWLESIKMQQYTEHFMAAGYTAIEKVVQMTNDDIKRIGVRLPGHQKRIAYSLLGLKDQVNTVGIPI

[3] = target: kinases (KINOMEscan panel) (Homo sapiens, UniProt P19525); conditions: kinase ElF2AK2; Published KINOMEscan; ref original PKIS2 published data; cited from earlier work
Sequence of kinases (KINOMEscan panel) (Homo sapiens, UniProt P19525) (P19525 whole entry): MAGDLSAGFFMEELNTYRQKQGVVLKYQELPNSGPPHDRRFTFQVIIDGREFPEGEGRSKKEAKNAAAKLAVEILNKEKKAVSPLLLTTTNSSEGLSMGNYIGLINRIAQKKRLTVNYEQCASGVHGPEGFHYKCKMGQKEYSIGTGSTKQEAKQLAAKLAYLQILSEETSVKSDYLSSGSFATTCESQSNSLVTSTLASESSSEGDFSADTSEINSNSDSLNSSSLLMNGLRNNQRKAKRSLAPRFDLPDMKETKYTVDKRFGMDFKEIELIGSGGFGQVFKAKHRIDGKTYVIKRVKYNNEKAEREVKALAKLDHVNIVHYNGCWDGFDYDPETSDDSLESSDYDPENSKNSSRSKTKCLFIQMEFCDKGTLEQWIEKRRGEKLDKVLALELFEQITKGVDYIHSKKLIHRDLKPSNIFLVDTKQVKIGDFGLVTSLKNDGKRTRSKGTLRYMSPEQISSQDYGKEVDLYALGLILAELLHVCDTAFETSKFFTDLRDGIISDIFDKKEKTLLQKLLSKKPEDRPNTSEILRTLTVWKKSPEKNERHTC

[4] = target: kinases (KINOMEscan panel) (Homo sapiens, UniProt Q9Y2H9); conditions: MAST1; Published KINOMEscan; ref original PKIS2 published data; cited from earlier work
Sequence of kinases (KINOMEscan panel) (Homo sapiens, UniProt Q9Y2H9) (Q9Y2H9 whole entry): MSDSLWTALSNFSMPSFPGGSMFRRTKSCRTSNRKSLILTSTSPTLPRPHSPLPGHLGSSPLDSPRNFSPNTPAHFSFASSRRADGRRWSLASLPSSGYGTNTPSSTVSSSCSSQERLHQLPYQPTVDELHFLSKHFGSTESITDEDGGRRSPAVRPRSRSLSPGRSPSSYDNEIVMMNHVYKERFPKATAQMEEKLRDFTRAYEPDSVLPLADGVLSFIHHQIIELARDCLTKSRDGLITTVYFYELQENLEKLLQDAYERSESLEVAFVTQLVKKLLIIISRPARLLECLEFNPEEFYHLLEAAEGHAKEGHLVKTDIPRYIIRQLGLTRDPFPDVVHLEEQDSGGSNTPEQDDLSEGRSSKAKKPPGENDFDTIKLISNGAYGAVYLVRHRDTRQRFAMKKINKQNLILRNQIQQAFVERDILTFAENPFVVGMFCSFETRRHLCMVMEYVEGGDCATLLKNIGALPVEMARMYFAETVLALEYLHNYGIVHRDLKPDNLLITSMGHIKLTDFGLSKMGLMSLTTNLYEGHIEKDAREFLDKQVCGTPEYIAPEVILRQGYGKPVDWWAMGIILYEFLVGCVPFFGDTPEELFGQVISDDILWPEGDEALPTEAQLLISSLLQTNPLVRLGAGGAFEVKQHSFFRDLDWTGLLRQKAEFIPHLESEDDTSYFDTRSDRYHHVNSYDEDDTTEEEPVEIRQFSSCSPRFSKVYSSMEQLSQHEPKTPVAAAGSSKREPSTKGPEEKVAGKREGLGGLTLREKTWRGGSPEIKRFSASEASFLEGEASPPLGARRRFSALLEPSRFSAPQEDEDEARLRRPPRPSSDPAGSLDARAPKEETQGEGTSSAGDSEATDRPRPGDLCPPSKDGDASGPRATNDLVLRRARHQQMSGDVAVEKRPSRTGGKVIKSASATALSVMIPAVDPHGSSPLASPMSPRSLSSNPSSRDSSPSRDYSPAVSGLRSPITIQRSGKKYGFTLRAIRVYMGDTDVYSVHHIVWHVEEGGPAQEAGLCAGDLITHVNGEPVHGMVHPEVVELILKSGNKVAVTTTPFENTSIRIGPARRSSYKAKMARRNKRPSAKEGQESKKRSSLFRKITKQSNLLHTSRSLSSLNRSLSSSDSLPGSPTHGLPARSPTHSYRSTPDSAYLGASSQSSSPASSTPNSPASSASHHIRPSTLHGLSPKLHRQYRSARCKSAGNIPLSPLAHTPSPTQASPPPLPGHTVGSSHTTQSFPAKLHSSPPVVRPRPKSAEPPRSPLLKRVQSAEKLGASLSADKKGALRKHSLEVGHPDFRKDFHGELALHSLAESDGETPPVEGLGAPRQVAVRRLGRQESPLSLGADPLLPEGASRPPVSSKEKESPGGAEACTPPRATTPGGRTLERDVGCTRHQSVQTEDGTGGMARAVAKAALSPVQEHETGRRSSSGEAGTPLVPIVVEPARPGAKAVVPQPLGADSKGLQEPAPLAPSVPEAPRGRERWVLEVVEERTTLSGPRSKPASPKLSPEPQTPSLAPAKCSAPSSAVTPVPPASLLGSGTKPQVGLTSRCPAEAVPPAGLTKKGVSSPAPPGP

[5] = target: T2, kinases (KINOMEscan panel) (Homo sapiens, UniProt Q6P3R8); conditions: kinase NEK5; Published KINOMEscan; ref original PKIS2 published data; cited from earlier work
T2 sequence (Q6P3R8 1-708): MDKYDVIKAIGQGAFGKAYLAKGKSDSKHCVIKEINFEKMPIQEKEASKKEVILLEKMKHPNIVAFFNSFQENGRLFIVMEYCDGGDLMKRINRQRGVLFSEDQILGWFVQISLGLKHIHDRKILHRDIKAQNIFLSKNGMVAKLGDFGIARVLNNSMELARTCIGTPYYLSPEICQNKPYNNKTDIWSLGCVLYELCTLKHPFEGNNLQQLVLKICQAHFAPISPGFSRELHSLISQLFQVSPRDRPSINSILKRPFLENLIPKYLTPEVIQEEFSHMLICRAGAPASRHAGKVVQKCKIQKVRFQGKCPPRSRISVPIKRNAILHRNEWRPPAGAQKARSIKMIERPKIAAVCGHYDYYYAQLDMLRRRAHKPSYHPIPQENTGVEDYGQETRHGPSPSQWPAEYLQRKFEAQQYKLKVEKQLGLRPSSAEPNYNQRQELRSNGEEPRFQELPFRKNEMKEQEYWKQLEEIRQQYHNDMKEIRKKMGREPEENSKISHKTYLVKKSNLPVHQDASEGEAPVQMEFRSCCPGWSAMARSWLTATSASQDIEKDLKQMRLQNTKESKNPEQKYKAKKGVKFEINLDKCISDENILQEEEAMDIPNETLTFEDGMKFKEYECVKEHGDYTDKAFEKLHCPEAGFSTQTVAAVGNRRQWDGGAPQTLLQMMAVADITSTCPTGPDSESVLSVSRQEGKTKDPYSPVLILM

[6] = target: kinases (KINOMEscan panel) (Homo sapiens, UniProt Q7KZI7); conditions: MARK2; Published KINOMEscan; ref original PKIS2 published data; cited from earlier work
Sequence of kinases (KINOMEscan panel) (Homo sapiens, UniProt Q7KZI7) (Q7KZI7 whole entry): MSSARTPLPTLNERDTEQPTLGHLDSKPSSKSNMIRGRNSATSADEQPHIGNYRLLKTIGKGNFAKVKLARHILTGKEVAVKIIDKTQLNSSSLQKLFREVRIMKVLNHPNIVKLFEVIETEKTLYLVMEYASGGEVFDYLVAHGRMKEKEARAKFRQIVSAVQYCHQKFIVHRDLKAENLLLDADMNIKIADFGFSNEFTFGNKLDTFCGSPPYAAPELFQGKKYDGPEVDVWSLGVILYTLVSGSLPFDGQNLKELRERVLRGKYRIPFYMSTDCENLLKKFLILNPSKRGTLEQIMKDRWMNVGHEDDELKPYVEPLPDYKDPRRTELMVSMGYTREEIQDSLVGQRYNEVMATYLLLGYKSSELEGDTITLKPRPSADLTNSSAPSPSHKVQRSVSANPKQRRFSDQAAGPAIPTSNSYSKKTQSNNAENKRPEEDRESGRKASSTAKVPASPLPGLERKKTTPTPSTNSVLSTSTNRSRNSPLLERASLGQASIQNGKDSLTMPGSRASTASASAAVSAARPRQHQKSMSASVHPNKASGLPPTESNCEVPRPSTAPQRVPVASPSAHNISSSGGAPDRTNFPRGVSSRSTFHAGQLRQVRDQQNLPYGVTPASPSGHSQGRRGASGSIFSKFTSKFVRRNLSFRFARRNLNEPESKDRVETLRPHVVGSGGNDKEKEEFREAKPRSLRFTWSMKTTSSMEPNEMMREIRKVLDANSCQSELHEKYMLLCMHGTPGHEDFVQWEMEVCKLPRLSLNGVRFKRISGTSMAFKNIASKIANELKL

[7] = target: kinases (KINOMEscan panel) (Homo sapiens, UniProt Q9H2X6); conditions: Published KINOMEscan; ref original PKIS2 published data; cited from earlier work
Sequence of kinases (KINOMEscan panel) (Homo sapiens, UniProt Q9H2X6) (Q9H2X6 whole entry): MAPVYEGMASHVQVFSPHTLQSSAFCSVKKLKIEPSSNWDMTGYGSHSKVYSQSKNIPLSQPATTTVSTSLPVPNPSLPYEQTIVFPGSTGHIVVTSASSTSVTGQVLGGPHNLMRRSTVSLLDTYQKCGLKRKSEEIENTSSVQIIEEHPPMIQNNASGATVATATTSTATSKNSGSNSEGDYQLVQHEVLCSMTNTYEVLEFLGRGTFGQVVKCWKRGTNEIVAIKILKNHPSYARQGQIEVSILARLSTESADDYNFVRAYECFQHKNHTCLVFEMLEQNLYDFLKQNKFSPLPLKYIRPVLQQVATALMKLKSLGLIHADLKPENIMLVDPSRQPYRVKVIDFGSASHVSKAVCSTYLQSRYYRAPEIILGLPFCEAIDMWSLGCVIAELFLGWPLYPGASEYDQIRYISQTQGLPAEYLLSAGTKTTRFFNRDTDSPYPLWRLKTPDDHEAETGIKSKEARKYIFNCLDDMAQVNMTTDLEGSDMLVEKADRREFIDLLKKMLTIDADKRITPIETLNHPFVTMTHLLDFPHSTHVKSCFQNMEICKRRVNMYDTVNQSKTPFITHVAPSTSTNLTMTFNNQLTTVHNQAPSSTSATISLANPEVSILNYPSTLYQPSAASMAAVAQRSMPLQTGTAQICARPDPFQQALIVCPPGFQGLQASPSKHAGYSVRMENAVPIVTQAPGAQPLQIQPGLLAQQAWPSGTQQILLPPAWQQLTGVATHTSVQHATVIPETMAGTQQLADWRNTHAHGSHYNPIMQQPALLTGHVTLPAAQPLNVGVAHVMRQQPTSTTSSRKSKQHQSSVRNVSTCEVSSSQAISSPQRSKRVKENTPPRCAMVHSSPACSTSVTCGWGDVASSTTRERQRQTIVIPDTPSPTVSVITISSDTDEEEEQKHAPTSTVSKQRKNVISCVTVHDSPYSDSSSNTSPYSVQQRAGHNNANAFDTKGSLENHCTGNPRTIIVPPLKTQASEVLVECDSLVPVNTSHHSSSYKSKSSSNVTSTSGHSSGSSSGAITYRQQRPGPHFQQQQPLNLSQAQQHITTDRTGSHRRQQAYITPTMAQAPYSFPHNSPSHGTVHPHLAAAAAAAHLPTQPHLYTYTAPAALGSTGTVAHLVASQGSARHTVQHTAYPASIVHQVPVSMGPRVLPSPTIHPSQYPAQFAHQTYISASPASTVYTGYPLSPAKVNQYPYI

Cc1cccc(-c2nc(Nc3ccncc3)c3ccccc3n2)n1 [NK215]
KINOMEscan MYO3B [1]: 17
KINOMEscan EPHA2 [2]: 18
KINOMEscan ElF2AK2 [3]: 2
KINOMEscan MAST1 [4]: 50
KINOMEscan NEK5 [5]: 10
KINOMEscan MARK2 [6]: 0
KINOMEscan HIPK2 [7]: 0
